According to patent US10479795B2 (Incyte Corporation, priority 2016, dated 2019):
Counter-ions that a name gives are not always drawn. Like-named read-outs stand apart in the source and are kept apart here.

Columns and labels:
[1] = system: Phosphorylated Ribosomal Protein S6 (RPS6); assay: THP-1 RPS6 ELISA Assay; assay type: cell-based, Human; conditions: THP-1 cells, read-out: PI3Kγ_THP1_RPS6_ELISA IC50
Procedure, shortened: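 Serum-starved THP-1 cells were preincubated with a concentration range of compound for 2 h at 37 °C, then stimulated with 10 nM MCP-1 for 15 min. Phospho-RPS6 in lysates was quantified by ELISA at 450 nm. IC50 came from percent inhibition versus log inhibitor concentration.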

[2] = target: PI3Kγ (p110γ) Recombinant Human Protein (Homo sapiens (Human), UniProt P48736); assay: PI3K-γ Scintillation Proximity Assay; assay type: biochemical; conditions: read-out: PI3Kγ IC50
PI3Kγ (p110γ) Recombinant Human Protein, sequence (P48736 whole entry): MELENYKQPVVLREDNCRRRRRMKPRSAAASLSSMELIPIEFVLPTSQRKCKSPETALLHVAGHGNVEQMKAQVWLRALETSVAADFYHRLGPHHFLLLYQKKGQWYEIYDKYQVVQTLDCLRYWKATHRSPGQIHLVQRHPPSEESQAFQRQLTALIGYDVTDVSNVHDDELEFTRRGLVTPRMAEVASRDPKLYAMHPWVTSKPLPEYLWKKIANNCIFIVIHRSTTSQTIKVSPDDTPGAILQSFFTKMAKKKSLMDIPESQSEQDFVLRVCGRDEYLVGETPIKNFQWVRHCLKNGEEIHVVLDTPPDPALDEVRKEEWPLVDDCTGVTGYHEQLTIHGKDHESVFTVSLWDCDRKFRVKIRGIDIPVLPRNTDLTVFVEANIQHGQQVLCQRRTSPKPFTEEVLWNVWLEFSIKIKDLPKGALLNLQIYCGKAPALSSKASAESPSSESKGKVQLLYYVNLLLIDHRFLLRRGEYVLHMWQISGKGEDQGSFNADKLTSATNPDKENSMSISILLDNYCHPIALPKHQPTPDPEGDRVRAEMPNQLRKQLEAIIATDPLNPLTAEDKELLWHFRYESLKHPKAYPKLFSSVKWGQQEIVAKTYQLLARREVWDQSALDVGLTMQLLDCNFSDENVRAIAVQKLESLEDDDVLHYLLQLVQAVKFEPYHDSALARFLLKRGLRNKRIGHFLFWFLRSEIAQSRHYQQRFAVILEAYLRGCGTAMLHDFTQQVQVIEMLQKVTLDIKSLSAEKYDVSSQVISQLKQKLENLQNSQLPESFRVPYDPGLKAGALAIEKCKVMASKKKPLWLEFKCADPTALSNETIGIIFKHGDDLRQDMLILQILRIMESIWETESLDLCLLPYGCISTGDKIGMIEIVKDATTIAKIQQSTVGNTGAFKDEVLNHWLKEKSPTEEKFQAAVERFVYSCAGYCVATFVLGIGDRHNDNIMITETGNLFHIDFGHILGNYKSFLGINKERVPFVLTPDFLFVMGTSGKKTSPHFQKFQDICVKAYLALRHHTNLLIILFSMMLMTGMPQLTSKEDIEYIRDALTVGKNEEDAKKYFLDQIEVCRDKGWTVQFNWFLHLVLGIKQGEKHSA
Procedure, shortened: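 Recombinant human p110γ assayed at room temperature in 20 mM MOPS pH 6.7, 10 mM MgCl2, 5 mM DTT, 0.03% CHAPS, 2% DMSO, with 20 μM PIP2 and 2 μM ATP plus [γ-33P]ATP. Product captured on WGA SPA beads overnight and counted; IC50 fitted from % of solvent-control activity versus log inhibitor concentration.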

[3] = target: PI3Kδ (p110δ/p85α) Recombinant Human Protein (Homo sapiens (Human), UniProt O00329); assay: PI3Kδ Scintillation Proximity Assay; assay type: biochemical
PI3Kδ (p110δ/p85α) Recombinant Human Protein, sequence (O00329 whole entry): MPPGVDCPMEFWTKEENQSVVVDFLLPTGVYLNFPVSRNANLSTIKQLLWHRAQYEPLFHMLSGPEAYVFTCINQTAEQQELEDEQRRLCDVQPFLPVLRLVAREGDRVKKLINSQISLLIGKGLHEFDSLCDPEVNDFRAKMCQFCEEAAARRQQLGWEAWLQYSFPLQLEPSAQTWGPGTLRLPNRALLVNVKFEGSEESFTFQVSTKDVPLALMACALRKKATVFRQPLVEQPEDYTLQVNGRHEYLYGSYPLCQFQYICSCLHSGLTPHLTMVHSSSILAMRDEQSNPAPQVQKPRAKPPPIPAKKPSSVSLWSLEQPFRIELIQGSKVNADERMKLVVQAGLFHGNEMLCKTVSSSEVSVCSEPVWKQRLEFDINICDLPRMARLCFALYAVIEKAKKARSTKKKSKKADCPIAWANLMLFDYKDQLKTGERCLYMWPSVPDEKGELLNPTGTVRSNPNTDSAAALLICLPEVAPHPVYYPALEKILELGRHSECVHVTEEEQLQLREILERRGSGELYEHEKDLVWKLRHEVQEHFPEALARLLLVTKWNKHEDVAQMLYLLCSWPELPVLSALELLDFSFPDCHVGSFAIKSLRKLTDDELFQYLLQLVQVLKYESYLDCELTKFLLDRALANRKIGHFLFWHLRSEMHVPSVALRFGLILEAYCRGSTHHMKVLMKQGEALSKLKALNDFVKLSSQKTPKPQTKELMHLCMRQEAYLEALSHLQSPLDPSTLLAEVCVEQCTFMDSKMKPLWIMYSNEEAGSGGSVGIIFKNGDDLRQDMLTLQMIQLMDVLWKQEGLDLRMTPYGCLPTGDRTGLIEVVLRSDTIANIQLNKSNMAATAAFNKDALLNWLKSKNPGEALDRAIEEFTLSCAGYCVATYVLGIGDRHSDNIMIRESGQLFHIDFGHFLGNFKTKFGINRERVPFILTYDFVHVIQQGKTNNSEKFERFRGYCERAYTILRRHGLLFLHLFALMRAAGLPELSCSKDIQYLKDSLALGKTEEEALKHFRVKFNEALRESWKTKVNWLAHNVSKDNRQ
PI3Kδ (p110δ/p85α) Recombinant Human Protein, sequence (P27986 whole entry partner): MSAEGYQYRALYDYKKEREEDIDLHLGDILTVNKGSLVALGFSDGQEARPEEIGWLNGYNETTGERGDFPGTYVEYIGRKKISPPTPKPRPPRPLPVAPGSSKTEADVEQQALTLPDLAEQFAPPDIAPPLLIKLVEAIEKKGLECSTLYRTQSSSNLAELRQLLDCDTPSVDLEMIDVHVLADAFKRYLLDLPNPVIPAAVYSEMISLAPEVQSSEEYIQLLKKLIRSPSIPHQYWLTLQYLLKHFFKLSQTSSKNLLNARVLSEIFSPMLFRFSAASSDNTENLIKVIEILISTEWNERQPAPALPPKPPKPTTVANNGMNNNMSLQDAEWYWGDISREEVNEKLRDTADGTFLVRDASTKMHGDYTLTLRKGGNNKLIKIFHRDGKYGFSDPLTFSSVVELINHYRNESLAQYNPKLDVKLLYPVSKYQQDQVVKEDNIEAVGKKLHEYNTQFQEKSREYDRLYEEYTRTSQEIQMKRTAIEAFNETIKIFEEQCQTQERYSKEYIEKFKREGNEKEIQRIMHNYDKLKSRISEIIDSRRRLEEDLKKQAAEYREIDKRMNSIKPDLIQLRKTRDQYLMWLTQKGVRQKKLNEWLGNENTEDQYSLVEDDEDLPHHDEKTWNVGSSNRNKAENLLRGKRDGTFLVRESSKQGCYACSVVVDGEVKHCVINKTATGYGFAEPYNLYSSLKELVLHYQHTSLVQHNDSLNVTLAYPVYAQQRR
Procedure, shortened: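 Recombinant human p110δ/p85α (3.4 nM) phosphorylates 20 μM di-octanoyl PIP2 using 2 μM ATP spiked with [γ-33P]ATP, 120 min, room temperature, pH 6.7, 2% DMSO. Product measured by scintillation proximity; IC50 from dose-response fit.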

Structure (SMILES)	IC50 ([1]; Homo sapiens)	IC50 [2]	IC50 [3]	IC50 [1]
Cc1ccc(S(=O)(=O)N2CC(CO)C2)cc1-c1cnc2c(N)ncnn12 [Example 128, (1-((3-(4-aminoimidazo[2,1-f][1,2,4]triazin-7-yl)-4-methylphenyl)sulfonyl)azetidin-3-yl)methanol]	100 to 500 nM	< 100 nM	100 to 500 nM	–
Cc1ccc(S(=O)(=O)NC23CC(CO)(C2)C3)cc1-c1cnc2c(N)nc(C(F)(F)F)nn12 [Example 319, 3-(4-Amino-2-(trifluoromethyl)imidazo[1,2-f][1,2,4]triazin-7-yl)-N-(3-(hydroxymethyl)bicyclo[1.1.1]pentan-1-yl)-4-methylbenzenesulfonamide]	–	< 100 nM	100 to 500 nM	< 100 nM
Cc1ccc(S(N)(=O)=O)cc1-c1cnc2c(N)nc(C(F)(F)F)nn12 [Example 336, 3-(4-Amino-2-(trifluoromethyl)imidazo[1,2-f][1,2,4]triazin-7-yl)-4-methylbenzenesulfonamide trifluoroacetate salt]	–	< 100 nM	100 to 500 nM	100 to 500 nM
[2H]C([2H])([2H])c1ccc(S(=O)(=O)NC23CCC(O)(C2)C3)cc1-c1cnc2c(N)nc(C(F)(F)F)cn12 [Example 252, 3-(8-Amino-6-(trifluoromethyl)imidazo[1,2-a]pyrazin-3-yl)-N-(4-hydroxybicyclo[2.1.1]hexan-1-yl)-4-(methyl-d3)benzenesulfonamide]	100 to 500 nM	< 100 nM	100 to 500 nM	–
Cc1noc(C23CC(NS(=O)(=O)c4ccc(C)c(-c5cnc6c(N)ncnn56)c4)(C2)C3)n1 [Example 94, 3-(4-Aminoimidazo[1,2-f][1,2,4]triazin-7-yl)-4-methyl-N-(3-(3-methyl-1,2,4-oxadiazol-5-yl)bicyclo[1.1.1]pentan-1-yl)benzenesulfonamide trifluoroacetate salt]	–	< 100 nM	100 to 500 nM	500 to 1000 nM
Cc1nc(N)c2ncc(-c3cc(S(=O)(=O)NC45CCC(C#N)(C4)C5)ccc3C)n2n1 [Example 265, 3-(4-Amino-2-methylimidazo[1,2-f][1,2,4]triazin-7-yl)-N-(4-cyanobicyclo[2.1.1]hexan-1-yl)-4-methylbenzenesulfonamide trifluoroacetate salt]	–	< 100 nM	< 100 nM	< 100 nM
Cc1ccc(S(=O)(=O)NC2CN(C)C2)cc1-c1cnc2c(N)nc(C(F)(F)F)nn12 [Example 322, 3-(4-Amino-2-(trifluoromethyl)imidazo[1,2-f][1,2,4]triazin-7-yl)-4-methyl-N-(1-methylazetidin-3-yl)benzenesulfonamide]	–	< 100 nM	100 to 500 nM	< 100 nM
Cc1ccc(S(=O)(=O)NC23CC(N4CCOCC4)(C2)C3)cc1-c1cnc2c(N)nc(C(F)(F)F)cn12 [Example 296, 3-(8-Amino-6-(trifluoromethyl)imidazo[1,2-a]pyrazin-3-yl)-4-methyl-N-(3-morpholinobicyclo[1.1.1]pentan-1-yl)benzenesulfonamide trifluoroacetate salt]	100 to 500 nM	< 100 nM	500 to 2000 nM	–
Cc1c(F)cc(S(=O)(=O)NC23CCC(C#N)(C2)C3)cc1-c1cnc2c(N)nc(C(F)(F)F)cn12 [Example 397, 3-(8-Amino-6-(trifluoromethyl)imidazo[1,2-a]pyrazin-3-yl)-N-(4-cyanobicyclo[2.1.1]hexan-1-yl)-5-fluoro-4-methylbenzenesulfonamide trifluoroacetate salt]	< 100 nM	< 100 nM	100 to 500 nM	–
Nc1nc(C(F)(F)F)nn2c(-c3cccc(S(=O)(=O)NC45CCC(CO)(C4)C5)c3)cnc12 [Example 411, 3-(4-Amino-2-(trifluoromethyl)imidazo[1,2-f][1,2,4]triazin-7-yl)-N-(4-(hydroxymethyl)bicyclo[2.1.1]hexan-1-yl)benzenesulfonamide trifluoroacetate salt]	–	< 100 nM	100 to 500 nM	100 to 500 nM
Cc1ccc(S(=O)(=O)N2CC(F)(F)C[C@H]2CO)cc1-c1cnc2c(N)ncnn12 [Example 212, (S)-(1-((3-(4-Aminoimidazo[2,1-f][1,2,4]triazin-7-yl)-4-methylphenyl)sulfonyl)-4,4-difluoropyrrolidin-2-yl)methanol]	500 to 1000 nM	< 100 nM	500 to 2000 nM	–
Cc1ccc(S(=O)(=O)N2CCCC(C#N)C2)cc1-c1cnc2c(N)nc(C(F)(F)F)cn12 (stereo not drawn) [Example 314, 1-((3-(8-Amino-6-(trifluoromethyl)imidazo[1,2-a]pyrazin-3-yl)-4-methylphenyl)sulfonyl)piperidine-3-carbonitrile]	100 to 500 nM	< 100 nM	100 to 500 nM	–
Cc1cc(C)c(S(=O)(=O)N[C@H]2CC[C@](C)(O)CC2)cc1-c1cnc2c(N)nc(C(F)(F)F)nn12 [Example 413, 5-(4-Amino-2-(trifluoromethyl)imidazo[1,2-f][1,2,4]triazin-7-yl)-N-((1r,4r)-4-hydroxy-4-methylcyclohexyl)-2,4-dimethylbenzenesulfonamide trifluoroacetate salt]	–	< 100 nM	100 to 500 nM	< 100 nM
Cc1ccc(S(=O)(=O)N2CC3C(O)C2CN3C2CC(C#N)C2)cc1-c1cnc2c(N)nc(C(F)(F)F)nn12 (stereo not drawn) [Example 354, 3-(5-((3-(4-amino-2-(trifluoromethyl)imidazo[2,1-f][1,2,4]triazin-7-yl)-4-methylphenyl)sulfonyl)-7-hydroxy-2,5-diazabicyclo[2.2.1]heptan-2-yl)cyclobutane-1-carbonitrile]	> 1000 nM	< 100 nM	500 to 2000 nM	–
Cc1ccc(S(=O)(=O)NC23CCC(C(=O)O)(C2)C3)cc1-c1cnc2c(N)ncnn12 [Example 109, 4-(3-(4-Aminoimidazo[1,2-f][1,2,4]triazin-7-yl)-4-methylphenylsulfonamido)bicyclo[2.1.1]hexane-1-carboxylic acid]	–	< 100 nM	500 to 2000 nM	> 1000 nM
Cc1ccc(S(=O)(=O)NCCN2CCS(=O)(=O)CC2)cc1-c1cnc2c(N)ncnn12 [Example 129, 3-(4-aminoimidazo[2,1-f][1,2,4]triazin-7-yl)-N-(2-(1,1-dioxidothiomorpholino)ethyl)-4-methylbenzenesulfonamide]	< 100 nM	< 100 nM	100 to 500 nM	–

The remaining lines, values ahead:

IC50 ([1]; Homo sapiens)	IC50 [2]	IC50 [3]	IC50 [1]	Structure (SMILES)
100 to 500 nM	100 to 500 nM	500 to 2000 nM	–	Cc1ccc(S(=O)(=O)N[C@H]2CC[C@](C)(O)CC2)cc1-c1cnc2c(N)ccnn12 [Example 518, 3-(8-Aminoimidazo[1,2-b]pyridazin-3-yl)-N-((1r,4r)-4-hydroxy-4-methylcyclohexyl)-4-methylbenzenesulfonamide]
–	< 100 nM	100 to 500 nM	100 to 500 nM	Cc1ccc(S(=O)(=O)N[C@H]2C[C@H](CO)C2)cc1-c1cnc2c(N)ncnn12 [Example 60, 3-(4-Aminoimidazo[1,2-f][1,2,4]triazin-7-yl)-N-[trans-3-(hydroxymethyl)cyclobutyl]-4-methylbenzenesulfonamide]
100 to 500 nM	< 100 nM	< 100 nM	–	Cc1ccc(S(=O)(=O)N[C@H]2CC[C@H](O)CC2)cc1-c1cnc2c(N)nc(-c3cccnc3)cn12 [Example 26, 3-(8-Amino-6-pyridin-3-ylimidazo[1,2-a]pyrazin-3-yl)-N-(trans-4-hydroxycyclohexyl)-4-methylbenzenesulfonamide]
–	< 100 nM	100 to 500 nM	100 to 500 nM	Cc1nc(N)c2ncc(-c3cc(S(=O)(=O)N[C@H]4C[C@H](C#N)C4)ccc3C)n2n1 [Example 272, 3-(4-amino-2-methylimidazo[1,2-f][1,2,4]triazin-7-yl)-N-((1r,3r)-3-cyanocyclobutyl)-4-methylbenzenesulfonamide trifluoroacetate salt]
–	< 100 nM	500 to 2000 nM	> 1000 nM	Cc1ccc(S(=O)(=O)NC2CCC(F)(F)CC2)cc1-c1cnc2c(N)nccn12 [Example 84, 3-(8-amionimidazo[1,2-a]pyrazin-3-yl)-N-(4,4-difluorocyclohexyl)-4-methylbenzenesulfonamide]
–	< 100 nM	500 to 2000 nM	100 to 500 nM	Cc1ccc(S(=O)(=O)N[C@H]2C[C@](O)(C(F)(F)F)C2)cc1-c1cnc2c(N)ncnn12 [Example 140, 3-(4-aminoimidazo[2,1-f][1,2,4]triazin-7-yl)-N-((1S,3S)-3-hydroxy-3-(trifluoromethyl)cyclobutyl)-4-methylbenzenesulfonamide]
100 to 500 nM	< 100 nM	100 to 500 nM	–	Cc1ccc(S(C)(=O)=O)cc1-c1cnc2c(N)nc(-c3ccc(C(C)O)cc3F)cn12 (stereo not drawn) [Example 488, 1-(4-(8-Amino-3-(2-methyl-5-(methylsulfonyl)phenyl)imidazo[1,2-a]pyrazin-6-yl)-3-fluorophenyl)ethan-1-ol]
100 to 500 nM	< 100 nM	100 to 500 nM	–	Cc1ccc(S(=O)(=O)NC23CC(Cn4ccnc4)(C2)C3)cc1-c1cnc2c(N)nc(C(F)(F)F)cn12 [Example 284, N-(3-((1H-imidazol-1-yl)methyl)bicyclo[1.1.1]pentan-1-yl)-3-(8-amino-6-(trifluoromethyl)imidazo[1,2-a]pyrazin-3-yl)-4-methylbenzenesulfonamide trifluoroacetate salt]
